Data reported in US20230232831A1, “MONOTERPENOID AND PHENYLPROPANOID CARBONATE ESTERS AND METHODS OF THEIR MAKING AND USE AS REPELLENTS” (IOWA STATE UNIVERSITY RESEARCH FOUNDATION, INC., priority 2020, published 2023).
“Also recorded” adds a separate entry of the source.

Legend:
Format in all cases: in vivo
Culex pipiens [1] = assay: Short-term spatial repellency, static air chamber; settings: for short-term repellency (result in words): 1 mL of 0.5% solution on filter paper, 15-150 min
Protocol: FIG. 4 is a graph showing the repellency observed when 1 mL of a 0.5% solution of each compound was applied to a filter paper, dried for 15 minutes, and placed at the treated end of the repellency chamber. FIG. 6 is a graph showing repellency of various compounds against the mosquito species Culex pipiens observed when 1 mL of a 0.5% solution of each compound was applied to a filter paper, dried for 15 minutes, and placed at the treated end of the repellency chamber. The static air chamber used for the repellency assay has been described previously (Klimavicz et al., “Monoterpenoid Isovalerate Esters as Long-lasting Spatial Mosquito Repellents,” In Advances in the Biorational Control of Medicaland Veterinary Pests, American Chemical Society: 2018; Vol. 1289, pp 205-217; Peterson et al., “Identification of Components of Osage Orange Fruit (Maclura pomifera) and Their Repellency to German Cockroaches,” J. Essent. Oil Res. 14:233-236 (2002), which are hereby incorporated by reference in their entirety). For each assay run, a 90-mm Whatman No. 1 filter paper was treated with 1 mL acetone solution containing 0.5% w/v of a carbonate ester. The filter paper was supported upon several pins during the addition of the acetone solution to diminish wicking of the solution away from the filter paper, and the solution was added over approximately thirty seconds to allow acetone to evaporate during the addition to prevent dripping. After the addition of the solution was complete, remaining acetone was permitted to evaporate for […] before testing. A 600-mm-long clear glass cylinder with an inner diameter of 85 mm and a single hole (20 mm diameter) halfway along the side of the cylinder was used for the repellency chamber. One end of the chamber was capped with a glass petri dish (inner diameter 90 mm) containing an untreated 90-mm Whatman No. 1 filter paper, while the other end was likewise covered with a similar petri dish containing the treated filter paper. Immediately after capping both ends of the chamber, 20 non-blood-fed female Culex pipiens mosquitoes were anesthetized with carbon dioxide, and placed into the repellency chamber through the hole in the side of the cylinder via a funnel. The hole was sealed, and the number of mosquitoes on the treated and untreated halves were recorded at 15, 30, 60, 90, 120, and 150 minutes after introduction of the mosquitoes to the chamber. All statistical analysis was performed in R. To determine repellency of a given compound, the number of repelled mosquitoes and the total number of mosquitos the chamber for each trial at a given time point were fit to a beta-binomial distribution to account for overdispersion in the estimated repellency. Because percentage repellency is bound between -100% (completely attracting) and 100% (completely repelling), percentage repellency shown with error bars representing 50% confidence intervals determined from a non-chance-corrected beta-binomial fit to the data, using an inverse link function equal to the psychometric function for the duo-trio test. Statistical significance was determined by nonoverlap of these confidence intervals. Estimates of the proportion of mosquitoes repelled in the chamber was then transformed to percentage repellency, which is expressed as […]

Culex pipiens [2] = assay: Short-term spatial repellency, static air chamber; settings: short-term assay, 1 mL of 0.5% solution, dried 15 minutes
Culex pipiens [3] = assay: Long-term repellency, treated filter paper placed in chamber 5 hours after application; settings: filter paper placed 5 hours after compound was applied
Protocol: FIG. 5 is a graph showing the repellency observed when 1 mL of each compound was applied to a filter paper placed at the treated end of the repellency chamber 5 hours after compound was applied. FIG. 8 is a graph showing the repellency of various compounds observed when 1 mL of each compound was applied to a filter paper placed at the treated end of the repellency chamber 5 hours after compound was applied. An array of older and newly synthesized carbonates was chosen and tested for repellency activity. Six compounds were screened according to long-term repellency assays and three compounds were screened according to short-term repellency assays. These assays were all conducted using Culex pipiens mosquitoes. The compounds tested are illustrated in Table 1. An array of carbonates was chosen and tested for repellency activity. Some compounds were screened according to long-term repellency assays and some compounds were screened according to short-term repellency assays. These assays were conducted using Culex pipiens mosquitoes or Aedes aegypti mosquitoes.

SMILES | short-term repellency (result in words) (Culex pipiens [1]) | other results
CCOC(=O)OCCC(C)CCC=C(C)C (stereo not shown) [Compound 1a, Citronellyl ethyl carbonate] | numerically superior out of all the citronellyl carbonates | mosquitoes repelled in short-term repellency assay (Culex pipiens [1]; 1 mL of 0.5% w/v acetone solution on filter paper, assay extending out to 2.5 hours): approximately 90%
CCOC(=O)Oc1cc(C)ccc1C(C)C [Compound 2a, Ethyl thymyl carbonate] | final estimated repellency was approximately the same | short-term repellency (result in words) (Culex pipiens [1]; listed as Ethyl thymyl carbonate): excellent short-term repellent
COC(=O)Oc1cc(C)ccc1C(C)C [Compound 4249, Thymyl methyl carbonate] |  | mortality seen in the repellency chamber (Culex pipiens [2]): significant mortality
CC(C)=CCCC(C)CCOC(=O)OCC(C)C (stereo not shown) [Compound 1d, Citronellyl isobutyl carbonate] | numerically, but not statistically, less repellent than 1a | 
Cc1ccc(C(C)C)c(OC(=O)OCC(C)C)c1 [Compound 2d, Isobutyl thymyl carbonate] | slower onset of high repellency; also recorded: final estimated repellency was approximately the same | 
CC(C)=CCCC(C)CCOC(=O)Oc1ccccc1 (stereo not shown) [Compound 1f, Citronellyl phenyl carbonate] | weakest repellent effect | 
COC(=O)OCCC(C)CCC=C(C)C (stereo not shown) [Compound 1b, Citronellyl methyl carbonate] | numerically, but not statistically, less repellent than 1a | 
CCOC(=O)OC1CC2CCC1(C)C2(C)C (stereo not shown) [Compound 7a, Bornyl ethyl carbonate] | only modest repellency | 
C=C(C)C1CCC(C)CC1OC(=O)OCC (stereo not shown) [Compound 3a, Ethyl isopulegyl carbonate] |  | long-term repellency (result in words) (Culex pipiens [3]): not able to repel mosquitoes very well at all
CC(C)=CCCC(C)CCOC(=O)OC(C)C (stereo not shown) [Compound 1c, Citronellyl isopropyl carbonate] | numerically, but not statistically, less repellent than 1a | 
CCOC(=O)OC1C=C(C)C2CC1C2(C)C (stereo not shown) [Compound 4251, Verbenyl ethyl carbonate] |  | mortality seen in the repellency chamber (Culex pipiens [2]): Very minimal amounts of mortality
